# Laboratory results: article PMC9516332 (Frontiers in Oncology, 2022)
# Like-named read-outs stand apart in the source and are kept apart here.
# Experiments:
# Test in all cases: Kinase panel profiling at 1 µmol/L (MSA or IMAP), percentage inhibition
# Type in all cases: biochemical
# [1] = molecular target: panel of 255 wild-type kinases (Homo sapiens, UniProt Q9H422); details: read-out: %-inhibition at 1 µmol/L, HIPK3
# [2] = molecular target: T1, panel of 255 wild-type kinases (Homo sapiens, UniProt Q96BR1); details: read-out: %-inhibition at 1 µmol/L, SGK3
# T1 sequence (Q96BR1 1-496): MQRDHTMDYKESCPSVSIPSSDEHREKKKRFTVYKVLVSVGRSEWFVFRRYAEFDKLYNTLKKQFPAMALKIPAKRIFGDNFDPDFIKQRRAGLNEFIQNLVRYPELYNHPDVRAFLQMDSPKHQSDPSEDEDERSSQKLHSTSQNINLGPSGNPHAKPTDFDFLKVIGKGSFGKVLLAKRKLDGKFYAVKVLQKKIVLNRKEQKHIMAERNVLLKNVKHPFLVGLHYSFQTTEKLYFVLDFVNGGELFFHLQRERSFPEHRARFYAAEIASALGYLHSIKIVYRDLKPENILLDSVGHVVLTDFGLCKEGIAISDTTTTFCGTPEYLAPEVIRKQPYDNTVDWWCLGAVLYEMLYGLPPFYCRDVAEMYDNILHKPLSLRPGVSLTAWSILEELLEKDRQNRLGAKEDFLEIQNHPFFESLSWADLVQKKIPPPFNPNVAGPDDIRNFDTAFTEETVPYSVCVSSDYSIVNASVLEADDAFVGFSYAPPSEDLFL
# [3] = molecular target: panel of 255 wild-type kinases (Homo sapiens, UniProt P45984); details: read-out: %-inhibition at 1 µmol/L, JNK2
# [4] = molecular target: T2, panel of 255 wild-type kinases (Homo sapiens, UniProt P54762); details: read-out: %-inhibition at 1 µmol/L, EPHB1
# T2 sequence (P54762 18-984): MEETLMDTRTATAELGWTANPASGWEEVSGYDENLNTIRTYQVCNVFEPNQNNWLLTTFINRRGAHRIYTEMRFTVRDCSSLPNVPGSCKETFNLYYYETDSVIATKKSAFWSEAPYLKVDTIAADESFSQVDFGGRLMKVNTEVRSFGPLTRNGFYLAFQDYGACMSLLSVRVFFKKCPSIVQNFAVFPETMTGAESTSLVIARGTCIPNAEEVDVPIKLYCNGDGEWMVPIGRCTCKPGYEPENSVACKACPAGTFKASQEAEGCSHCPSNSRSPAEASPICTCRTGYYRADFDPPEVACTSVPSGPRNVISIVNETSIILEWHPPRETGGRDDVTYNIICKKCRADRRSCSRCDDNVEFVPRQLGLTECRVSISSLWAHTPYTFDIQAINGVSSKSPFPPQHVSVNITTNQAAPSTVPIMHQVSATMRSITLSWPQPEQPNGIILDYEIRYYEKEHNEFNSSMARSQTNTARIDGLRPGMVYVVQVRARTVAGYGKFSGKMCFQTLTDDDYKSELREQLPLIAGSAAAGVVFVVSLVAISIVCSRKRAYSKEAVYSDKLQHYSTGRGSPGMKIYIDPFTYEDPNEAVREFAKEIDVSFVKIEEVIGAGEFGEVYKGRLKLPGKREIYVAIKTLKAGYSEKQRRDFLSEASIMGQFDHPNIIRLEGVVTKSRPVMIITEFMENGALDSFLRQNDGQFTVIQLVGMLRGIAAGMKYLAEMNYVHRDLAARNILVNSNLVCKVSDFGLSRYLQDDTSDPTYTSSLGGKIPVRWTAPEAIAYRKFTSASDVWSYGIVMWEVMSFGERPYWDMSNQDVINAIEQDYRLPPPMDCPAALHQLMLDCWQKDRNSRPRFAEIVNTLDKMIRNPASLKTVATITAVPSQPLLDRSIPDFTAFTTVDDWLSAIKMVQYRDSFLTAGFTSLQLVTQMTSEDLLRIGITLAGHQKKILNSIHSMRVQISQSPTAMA
# [5] = molecular target: panel of 255 wild-type kinases (Homo sapiens, UniProt Q9UPE1); details: read-out: %-inhibition, MSSK1
# [6] = molecular target: T3, panel of 255 wild-type kinases (Homo sapiens, UniProt Q8IW41); details: read-out: %-inhibition, MAPKAPK5
# T3 sequence (Q8IW41 1-473): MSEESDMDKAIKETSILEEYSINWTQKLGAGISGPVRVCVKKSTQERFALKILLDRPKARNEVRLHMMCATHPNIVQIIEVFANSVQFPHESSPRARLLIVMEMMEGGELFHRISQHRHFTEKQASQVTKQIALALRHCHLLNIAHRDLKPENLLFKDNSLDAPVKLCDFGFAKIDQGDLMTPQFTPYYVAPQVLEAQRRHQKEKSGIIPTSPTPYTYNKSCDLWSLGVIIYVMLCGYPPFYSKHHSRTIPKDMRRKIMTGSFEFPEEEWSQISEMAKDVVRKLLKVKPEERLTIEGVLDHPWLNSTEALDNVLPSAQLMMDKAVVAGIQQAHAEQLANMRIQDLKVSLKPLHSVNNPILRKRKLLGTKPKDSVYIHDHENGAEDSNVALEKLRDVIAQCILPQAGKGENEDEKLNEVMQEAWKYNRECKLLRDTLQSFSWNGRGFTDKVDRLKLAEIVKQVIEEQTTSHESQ
# [7] = molecular target: panel of 255 wild-type kinases (Homo sapiens, UniProt Q13131); details: read-out: %-inhibition AMPKα1/β1/γ1
# [8] = kinase HIPK3, 1 µmol/L single concentration
# [9] = kinase SGK3, 1 µmol/L single concentration
# [10] = kinase JNK2, 1 µmol/L single concentration
# [11] = kinase EPHB1, 1 µmol/L single concentration
# [12] = MSSK1, 1 µmol/L single concentration
# [13] = MAPKAPK5, 1 µmol/L single concentration
# [14] = AMPKα1/β1/γ1 kinase assay, 1 µmol/L single concentration
Structure (SMILES),"inhibition at 1 µM [1, 8]","inhibition at 1 µM [2, 9]","inhibition at 1 µM [3, 10]","inhibition at 1 µM [4, 11]","inhibition at 1 µM [5, 12]","inhibition at 1 µM [6, 13]","inhibition at 1 µM [7, 14]",inhibition at 1 µM [1],inhibition at 1 µM [2],inhibition at 1 µM [3],inhibition at 1 µM [4],inhibition at 1 µM [5],inhibition at 1 µM [6],inhibition at 1 µM [7]
Cc1nc(NC(=O)N2CCC[C@H]2C(N)=O)sc1-c1ccnc(C(C)(C)C(F)(F)F)c1 [alpelisib],7%,1.47%,0.494%,8%,-3.38%,-2.15%,-5%,–,–,–,–,–,–,–
Cn1cc(-c2cc3c(N4CCN(c5ncc([C@@](C)(N)c6ccc(F)cc6)cn5)CC4)ncnn3c2)cn1 [avapritinib],-0.071%,-2%,1.1%,65%,0.0476%,2%,9%,–,–,–,–,–,–,–
Cn1cnc2c(F)c(Nc3ccc(Br)cc3F)c(C(=O)NOCCO)cc21 [binimetinib],0.0241%,-0.74%,-5.47%,2%,-4.37%,-4.73%,-7%,–,–,–,–,–,–,–
CNC(=O)c1ccc(-c2cnc3ncc(Cc4ccc5ncccc5c4)n3n2)cc1F [capmatinib],–,–,–,–,–,–,–,-3%,-2.49%,-0.668%,-1.63%,-3.24%,-7%,-4.64%
COc1cc2ncnc(Nc3ccc(F)c(Cl)c3)c2cc1NC(=O)/C=C/CN1CCCCC1 [dacomitinib],3.75%,-20%,1.27%,45%,0.445%,-4.47%,-12%,–,–,–,–,–,–,–
C[C@H](Nc1ncnc2nc[nH]c12)c1cc2cccc(Cl)c2c(=O)n1-c1ccccc1 [duvelisib],3.5%,1.26%,2%,10%,-2.73%,0.859%,-4%,–,–,–,–,–,–,–
COC(=O)N[C@@H](C)CNc1nccc(-c2cn(C(C)C)nc2-c2cc(Cl)cc(NS(C)(=O)=O)c2F)n1 [encorafenib],5.63%,5%,61%,3%,1.39%,-4%,-2.31%,–,–,–,–,–,–,–
CN1CCN(c2ccc(C(=O)Nc3n[nH]c4ccc(Cc5cc(F)cc(F)c5)cc34)c(NC3CCOCC3)c2)CC1 [entrectinib],5%,0.413%,7%,62%,12%,0.65%,55%,–,–,–,–,–,–,–
CCc1nc(C(N)=O)c(Nc2ccc(N3CCC(N4CCN(C)CC4)CC3)c(OC)c2)nc1NC1CCOCC1 [gilteritinib],66%,-18%,44%,87%,22%,-0.923%,0.625%,–,–,–,–,–,–,–
CCN1CCN(c2ccc(Nc3cc(N(C)C(=O)Nc4c(Cl)c(OC)cc(OC)c4Cl)ncn3)cc2)CC1 [infigratinib],-3.71%,-3%,2.8%,2.8%,-2.83%,-6%,-4%,–,–,–,–,–,–,–
O=C(Nc1cnn2ccc(N3CCC[C@@H]3c3cc(F)ccc3F)nc12)N1CC[C@H](O)C1 [larotrectinib],-4%,-4.61%,-0.671%,-0.531%,-1.58%,-3%,-5.64%,–,–,–,–,–,–,–
C[C@H]1Oc2cc(cnc2N)-c2c(nn(C)c2C#N)CN(C)C(=O)c2ccc(F)cc21 [lorlatinib],0.506%,7.56%,3.24%,68%,33%,2.32%,-3.58%,–,–,–,–,–,–,–
CCN1C(=O)N(c2c(F)c(OC)cc(OC)c2F)Cc2cnc3[nH]c(CN4CCOCC4)cc3c21 [pemigatinib],0.456%,-7%,1.27%,-3%,-7%,2.28%,-6.52%,–,–,–,–,–,–,–
FC(F)(F)c1ccc(CNc2ccc(Cc3c[nH]c4ncc(Cl)cc34)cn2)cn1 [pexidartinib],3.52%,-0.803%,2.5%,11%,-4%,0.469%,-11%,–,–,–,–,–,–,–
CO[C@]1(C(=O)N[C@@H](C)c2ccc(-n3cc(F)cn3)nc2)CC[C@H](c2nc(C)cc(Nc3cc(C)[nH]n3)n2)CC1 [pralsetinib],9%,-0.536%,5%,58%,-6%,-3.49%,46%,–,–,–,–,–,–,–
CCn1c(=O)c(-c2cc(NC(=O)Nc3ccccc3)c(F)cc2Br)cc2cnc(NC)cc21 [ripretinib],4%,-9%,35%,92%,-0.94%,-3.71%,-10%,–,–,–,–,–,–,–
COc1ccc(CN2C3CC2CN(c2ccc(-c4cc(OCC(C)(C)O)cn5ncc(C#N)c45)cn2)C3)cn1 [selpercatinib],-3%,-0.72%,-1.07%,98%,2.44%,-1.78%,22%,–,–,–,–,–,–,–
Cn1cnc2c(F)c(Nc3ccc(Br)cc3Cl)c(C(=O)NOCCO)cc21 [selumetinib],3%,-4%,-2.13%,-0.927%,-5.32%,-3.2%,-2.66%,–,–,–,–,–,–,–
